In patent US20250066722A1, “METHODS FOR PRODUCTION OF FUNCTIONAL NEURONS” (AXENT BIOSCIENCES INC., priority 2021, published 2025):

Test system: Human induced pluripotent stem cells (hPSCs)
Experiment: 3D dopaminergic neuron differentiation of hPSCs with tyrosine hydroxylase immunocytochemistry
Type: cell-based
Details: for expression of tyrosine hydroxylase in differentiating aggregates: by day 20, immunocytochemistry, FGF8, TGF-β, BDNF, GDNF removed and replaced with BT-13 or Q525, FIGS. 3 and 5; for production of hPSC-derived neurons expressing the functional biomarker Tyrosine Hydroxylase: replacement of GDNF, BDNF and TGF-β in maturation media from Day 11, BT-13 5 μM or Q525 5 nM, with DAPT 10 uM, 3D AXgel
Procedure: Human Pluripotent Stem Cell Culture. Human […] (hPSCs) (ThermoFisher A 18945) were subcultured in monolayer format on a layer of 1% Matrigel and maintained in Essential 8 medium during expansion. At 80% confluency, H9s were passaged using Versene solution and replated at a 1:8 split.
3D hPSC Culture Seeding. hPSCs were dissociated into single cells using Accutase solution and resuspended in Essential 8 (E8) medium containing 10 μM Y-27632 (Rock Inhibitor, RI). hPSCs were counted and resuspended at defined densities in 11% AXgel on ice. Cells suspended in AXgel were dispensed into a multi-well tissue culture plate and heated to 37° C. for 15 minutes and afterward pre-warmed E8 medium containing 10 μM RI was added to each well. 3D cell suspensions remained in E8 with RI for 2 days (from Day −2 to Day 0).
3D Dopaminergic Neuron Differentiation. Starting Day 0, hPSCs in AXgel were transitioned to differentiation media to induce neural lineage commitment and subsequently specification into midbrain dopaminergic neurons. Starting Day 11, neural precursors were transitioned to maturation media containing GDNF agonist BT-13 (5 μM) or Q525 (5 nM) in place of proteins GDNF, BDNF, and TGF-β. Media formulations were according to Table 2: […]
Immunocytochemistry. At the endpoint of the experiment, cell aggregates were harvested from AXgel by replacing warm media with chilled media and plated on 8-chamber culture slides coated with 10 μg/mL laminin and cultured overnight in the incubator to allow aggregates to adhere to the surface. Aggregates attached to the culture slide were then fixed using 4% paraformaldehyde (PFA) for 15 minutes. Aggregates were washed twice in PBS for 5 minutes each and incubated in 0.25% Triton-X+5% donkey serum in PBS for 10 minutes to permeabilize cells. After permeabilization, aggregates were washed 5 times in 5% donkey serum for 5 minutes each and incubated with primary antibodies of interest diluted in PBS+donkey serum (dilution details in Table 3), and stored overnight at 4° C. After primary staining, aggregates were washed twice in PBS for 5 minutes each and incubated in solution containing the corresponding secondary antibodies (dilution details in Table 3), and incubated at 37° C. for 2 hours. After secondary staining, aggregates were washed twice in PBS for 5 minutes each and culture slides were mounted with a cover slip to be imaged.
Microscopy. Live cell aggregates suspended in AXgel were periodically imaged during the experiment using an EVOS XL Core Imaging System for transmitted light microscopy available in the Cell and Tissue Analysis Facility through QB3-Berkeley. Fixed, stained, and mounted cell aggregates were imaged with a 20× or 40× objective using a Perkin Elmer Opera Phenix automated confocal fluorescence microscope available in the High-Throughput Screening Facility through QB3-Berkeley. Laser exposure time and power was kept constant for a fluorescence channel within an imaging set.

SMILES	expression of tyrosine hydroxylase in differentiating aggregates	production of hPSC-derived neurons expressing the functional biomarker Tyrosine Hydroxylase	tyrosine hydroxylase-positive neurons (FIG. 5) (day 18, 10 nM Q525 in differentiation media free of GDNF, BDNF and TGFβ3, induction media without FGF8)
CCN(CC)S(=O)(=O)c1ccc(OC)c(N2CCN(C(=O)c3ccc(F)cc3C(F)(F)F)CC2)c1 [BT-13, N,N-diethyl-3-[4-[4-fluoro-2-(trifluoromethyl)-benzoyl]piperazin-1-yl]-4-methoxybenzenesulfonamide]	detected in neuronal cell bodies within all of the differentiating aggregates	sufficient to produce hPSC-derived neurons expressing the functional biomarker Tyrosine Hydroxylase	–
O=C1C(Nc2ccc(CO)cc2)=C(O)C(=O)c2ncccc21 [Q525]	detected in neuronal cell bodies within all of the differentiating aggregates	sufficient to produce hPSC-derived neurons expressing the functional biomarker Tyrosine Hydroxylase	tyrosine hydroxylase-positive neurons at day 18
